According to the supplement of paper PMC13380429:

Legend:
Details in all cases: 72 h
[1] = system: Calu-3; assay: relative viability EC50 (midpoint between 100% and the lowest measured viability); higher = less toxic
[2] = system: Vero E6; assay: as above
[3] = system: Caco-2; assay: as above
[4] = system: U2OS; assay: as above
[5] = system: HepG2; assay: as above
[6] = system: Calu-3; assay: drug sensitivity score (DSS) for viability; higher = more toxic; extreme values may be limits of the assay
[7] = system: Vero E6; assay: as above
[8] = system: Caco-2; assay: as above
[9] = system: U2OS; assay: as above
[10] = system: HepG2; assay: as above
[11] = system: Calu-3; assay: cell viability relative to DMSO; higher = less toxic
[12] = system: Vero E6; assay: as above
[13] = system: Caco-2; assay: as above
[14] = system: U2OS; assay: as above
[15] = system: HepG2; assay: as above

Row | Compound | relative viability EC50 [1] [µM] | relative viability EC50 [2] [µM] | relative viability EC50 [3] [µM] | relative viability EC50 [4] [µM] | relative viability EC50 [5] [µM] | drug sensitivity score [6] | drug sensitivity score [7] | drug sensitivity score [8] | drug sensitivity score [9] | drug sensitivity score [10] | cell viability ([11]; 1 nM) [%] | cell viability ([11]; 10 nM) [%] | cell viability ([11]; 100 nM) [%] | cell viability ([11]; 1000 nM) [%] | cell viability ([11]; 10000 nM) [%] | cell viability ([12]; 1 nM) [%] | cell viability ([12]; 10 nM) [%] | cell viability ([12]; 100 nM) [%] | cell viability ([12]; 1000 nM) [%] | cell viability ([12]; 10000 nM) [%] | cell viability ([13]; 1 nM) [%] | cell viability ([13]; 10 nM) [%] | cell viability ([13]; 100 nM) [%] | cell viability ([13]; 1000 nM) [%] | cell viability ([13]; 10000 nM) [%] | cell viability ([14]; 1 nM) [%] | cell viability ([14]; 10 nM) [%] | cell viability ([14]; 100 nM) [%] | cell viability ([14]; 1000 nM) [%] | cell viability ([14]; 10000 nM) [%] | cell viability ([15]; 1 nM) [%] | cell viability ([15]; 10 nM) [%] | cell viability ([15]; 100 nM) [%] | cell viability ([15]; 1000 nM) [%] | cell viability ([15]; 10000 nM) [%]
1 | FC(F)(F)c1ccc(CNc2ccc(Cc3c[nH]c4ncccc34)cn2)cc1 [PLX647] | > 10 | > 10 | > 10 | > 10 | > 10 | 0 | 0 | 0 | 0 | 0.1 | 102 | 96.4 | 105 | 93.9 | 94.7 | 95.7 | 98.8 | 96.7 | 98.5 | 96.8 | 96 | 102 | 94.7 | 94.2 | 91.3 | 104 | 97.6 | 101 | 97.7 | 96.4 | 100 | 97.6 | 97.4 | 101 | 86.9
2 | COc1cc(Br)c(Nc2nc(-c3c(C)nc4ncccn34)cs2)c(Br)c1 [PTC-209] | 1.44 | 0.633 | 1.5 | 0.986 | 1.3 | 5.7 | 11.7 | 8 | 10.4 | 8.7 | 109 | 102 | 98.9 | 83.2 | 41.2 | 99.3 | 99.3 | 95.7 | 43.1 | 15.7 | 95.4 | 91.5 | 96.1 | 77.8 | 16.7 | 97.7 | 101 | 98.8 | 55.3 | 11.8 | 97.1 | 97.5 | 100 | 71.3 | 16.1
3 | O=S(=O)(c1ccccc1F)N1CCOc2c(N3CCNCC3)cccc21 [R-1485] | > 10 | > 10 | > 10 | > 10 | > 10 | 0 | 0 | 0 | 0 | 0 | 96.5 | 100 | 98.8 | 100 | 90.8 | 105 | 105 | 99.2 | 97.3 | 108 | 89.3 | 98.6 | 93 | 96.3 | 95.6 | 96.2 | 96.5 | 93.6 | 97.6 | 92.8 | 102 | 101 | 101 | 93.6 | 96.7
4 | Cc1nn(-c2ccccc2)c(C)c1/C=N/N1CCN(Cc2ccccc2)CC1 [SANT-1] | > 10 | > 10 | > 10 | > 10 | > 10 | 0.2 | 0 | 0 | 0 | 0 | 98.6 | 93.8 | 93.1 | 81.7 | 94.3 | 98.1 | 99.7 | 94.6 | 102 | 106 | 105 | 102 | 99.2 | 94 | 104 | 105 | 98.3 | 102 | 99.5 | 102 | 87.1 | 92.3 | 87 | 99.7 | 74.1
5 | O=S(=O)(NCCCCCCc1ccccc1)c1cccc2c(Cl)cccc12 [SC-9] | > 10 | > 10 | > 10 | > 10 | > 10 | 0 | 0 | 0 | 0 | 0 | 102 | 108 | 102 | 96.8 | 101 | 99 | 101 | 96.8 | 102 | 107 | 91.8 | 89 | 87.2 | 101 | 94.5 | 94.6 | 97.9 | 92.7 | 97.4 | 99.5 | 105 | 96.6 | 103 | 108 | 119
6 | CCCCCCCNS(=O)(=O)c1cccc2c(Cl)cccc12 [SC-10] | > 10 | > 10 | > 10 | > 10 | > 10 | 0 | 0 | 0 | 0 | 0 | 99.7 | 106 | 93.8 | 105 | 105 | 117 | 95.8 | 102 | 100 | 95.3 | 112 | 99.9 | 84.6 | 123 | 90.7 | 97.7 | 98.1 | 93.5 | 103 | 96.2 | 98.3 | 94.8 | 108 | 97.5 | 96.3
7 | CN(Cc1ccccc1)C(=O)[C@H](Cc1ccc2ccccc2c1)NC(=O)[C@@H]1CCCN1C(=O)Nc1ccccc1[N+](=O)[O-] [SDZ-NKT-343] | > 10 | > 10 | > 10 | > 10 | > 10 | 0 | 0 | 1.7 | 0 | 0 | 95 | 93.7 | 98.9 | 97.3 | 90.7 | 102 | 98.7 | 106 | 97.7 | 99.2 | 96.3 | 97.3 | 96.1 | 89 | 75.1 | 105 | 103 | 101 | 106 | 87.3 | 102 | 93.9 | 103 | 93.6 | 92.2
